Assay results reported in patent US20240368133A1, “Compounds for the Treatment of Pain, in Particular, Neuropathic Pain, and/or Other Diseases or Disorders that are Associated with AT2R and/or AT2R Mediated Signaling” (Confo Therapeutics N.V., priority 2021, published 2024).

Tests used:
human AT1R = human AT1R (Homo sapiens (Human), UniProt P30556); assay: Counterscreen radioligand binding assay, displacement of 125I-[Sar1, Ile8]-Angiotensin II, hAT1R WT; settings: for inhibition at 1 µM / inhibition at 10 µM: 125I-[Sar1, Ile8]-Ang II, semi-quantitative score; for inhibition at 1 µM: compound at 1 μM, read-out: % Displaced radioligand at 1 μM; for inhibition at 10 µM: compound at 10 μM, read-out: % Displaced radioligand at 10 μM; for IC50: HEK-293 cell membranes, read-out: Binding affinity On hAT1R IC50
Chain of human AT1R (P30556 whole entry, the tested form may be a part): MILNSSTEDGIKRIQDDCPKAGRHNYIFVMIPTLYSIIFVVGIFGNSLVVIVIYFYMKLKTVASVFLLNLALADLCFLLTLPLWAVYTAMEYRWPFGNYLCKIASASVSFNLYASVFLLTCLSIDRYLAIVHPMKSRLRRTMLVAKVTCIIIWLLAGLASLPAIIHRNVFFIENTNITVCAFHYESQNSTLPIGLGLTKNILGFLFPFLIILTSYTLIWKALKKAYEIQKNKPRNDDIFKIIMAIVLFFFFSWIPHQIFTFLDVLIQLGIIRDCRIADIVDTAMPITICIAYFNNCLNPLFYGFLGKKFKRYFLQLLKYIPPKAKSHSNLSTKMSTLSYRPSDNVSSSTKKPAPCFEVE
Description: (§1) All synthesized ligands were evaluated in a radioligand assay by displacing ^125I-[Sar1, Ile8]-Angiotensin II (Perkin Elmer, NEX248050UC) from human AT2R fused to Cb23 or human/rodent/cynomolgus/minipig/dog WT AT2R in HEK-293 cells membrane preparations, using C21 (Vicore Pharma) and Angiotensin II (endogenous ligand) as reference. The affinity was determined using an eight-point dose-response curve, each point performed in duplicates. The compounds were also evaluated in a counterscreen binding assay for displacement of ^125I-[Sar1, Ile8]-Angiotensin II binding to human AT1R in HEK-293 cell membranes. For AT1R, the percent displacement was determined at 1 μM and […] (in duplicates) or using an eight-point dose-response curve, each point performed in duplicates with Candesartan and Losartan used as reference.
(§2) For the AT2R/AT1R binding assays, cell membranes, expressing AT2R_Cb23, AT2R or AT1R, were incubated with 0.05 nM ^125I-[Sarl, Ile8]-Ang II. The ligand competition assay was performed in a total volume of 100 μL assay buffer (50 mM Tris, 5 mM MgCl2, 1 mM EDTA, 0.1% BSA, pH 7.4), at concentrations ranging from […] to 10 μM. For each experiment, each ligand concentration was tested in duplicate. Non-specific binding (NSB) was determined by the inclusion of 10 μM unlabeled [Sarl]-Ang II (Sigma Aldrich). The reaction was initiated by the addition of radioligand, after which the plates were incubated at 25° C. for one hour. The reaction was terminated by rapid filtration using a vacuum harvester, applying six washes with 100 μL of ice-cold wash buffer (50 mM Tris.HCl, pH 7.4). The filter plates GF/C (Perkin Elmer) were pre-soaked in 0.5% PEI. The residual amount of radioactivity was determined via liquid scintillation counting. IC50 values, representing the concentration at which each ligand displaced 50% of ^125I-[Sarl, Ile8]-Ang II, were calculated using GraphPad Prism 7.02 by applying a Non-linear regression equation (variable slope, four parameters) on the data. The obtained values serve as affinity estimates for each ligand and their ability to compete against the radioligand for binding with AT2R or AT1R, respectively.

human AT2R fused to Cb23 = human AT2R fused to Cb23 (Homo sapiens, UniProt P50052); assay: Radioligand binding assay, displacement of 125I-[Sar1, Ile8]-Angiotensin II, hAT2R Cb23; settings: displacement of 125I-[Sar1, Ile8]-Angiotensin II, human AT2R fused to Cb23, HEK-293 cell membrane preparations; read-out: Binding affinity on hAT2R_Cb23 IC50
Chain of human AT2R fused to Cb23 (P50052 whole entry, looked up, the tested form may be a part): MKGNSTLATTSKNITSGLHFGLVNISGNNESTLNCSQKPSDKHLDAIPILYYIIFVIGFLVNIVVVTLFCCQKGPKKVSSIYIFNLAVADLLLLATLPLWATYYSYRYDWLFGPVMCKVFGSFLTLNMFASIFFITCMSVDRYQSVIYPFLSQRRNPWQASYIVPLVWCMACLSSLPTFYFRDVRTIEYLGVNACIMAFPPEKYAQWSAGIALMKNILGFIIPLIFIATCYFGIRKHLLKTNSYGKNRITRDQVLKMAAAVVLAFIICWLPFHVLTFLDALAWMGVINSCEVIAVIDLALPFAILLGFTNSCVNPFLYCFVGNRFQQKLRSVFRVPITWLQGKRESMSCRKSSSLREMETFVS
Description: as §1, §2

| SMILES | inhibition at 1 µM (human AT1R) | inhibition at 10 µM (human AT1R) | IC50 (human AT2R fused to Cb23) | IC50 (human AT1R) |
| --- | --- | --- | --- | --- |
| CCCc1ccc(-c2nn[nH]n2)c(N2CCN(Cc3nc4ccccc4n3C)CC2)c1 [Compound A-19, 1-methyl-2-[[4-[5-propyl-2-(2H-tetrazol-5-yl)phen-yl]piperazin-1-yl]-methyl]benzimid-azole] | < 30% | < 30% | 1.17 µM | 47.4 µM |
| CC(C)=Cc1ccc(-c2nn[nH]n2)c(N2CCN(Cc3nc4ccccc4n3C)CC2)c1 [Compound A-21, 1-methyl-2-[[4-[5-(2-methylprop-1-enyl)-2-(2H-tetrazol-5-yl)phen-yl]piperazin-1-yl]-methyl]benzimid-azole] | < 30% | < 30% | 0.488 µM | 41.7 µM |
| CC(C)Oc1ccc(-c2nn[nH]n2)c(N2CCC(Cc3nc4ccccc4n3C)CC2)c1 [Compound A-25, 2-[[1-[5-isopropoxy-2-(2H-tetrazol-5-yl)phenyl]-4-piperidyl]methyl]-1-methyl-benzimid-azole] | < 30% | < 30% | 8.31 µM | – |
| O=c1[nH]c(CN2CCN(c3cc(C4CC4)ccc3-c3nn[nH]n3)CC2)nc2ccccc12 [Compound A-28, 2-[[4-[5-cyclopropyl-2-(2H-tetrazol-5-yl)phenyl]piperazin-1-yl]methyl]-3H-quinazolin-4-one] | < 30% | < 30% | 3.56 µM | – |
| CCS(=O)(=O)NC(=O)c1ccc(OC)cc1N1CCN(Cc2nc3ccccc3s2)CC1 [Compound A-37, 2-[4-(1,3-benzothiazol-2-ylmethyl)piperazin-1-yl]-N-ethylsulfonyl-4-methoxy-benzamide] | < 30% | < 30% | 6.58 µM | – |
| CCOc1ccc(C(=O)NS(=O)(=O)CC)c(N2CCN(Cc3nc4ccccc4s3)CC2)c1 [Compound A-38, 2-[4-(1,3-benzothiazol-2-ylmethyl)piperazin-1-yl]-4-ethoxy-N-ethylsulfonyl-benzamide] | < 30% | 30 to 50% | 2.4 µM | 13.6 µM |
| CCS(=O)(=O)NC(=O)c1ccc(OC(C)C)cc1CN1CCN(c2nc3ccccc3s2)CC1 [Compound A-39, 2-[[4-(1,3-benzothiazol-2-yl)piperazin-1-yl]methyl]-N-ethylsulfonyl-4-isopropoxy-benzamide] | < 30% | < 30% | 2.81 µM | – |
| CCS(=O)(=O)NC(=O)c1ccc(OC2CC2)cc1N1CCN(Cc2nc3ccccc3s2)CC1 [Compound A-41, 2-[4-(1,3-benzothiazol-2-ylmethyl)piperazin-1-yl]-4-(cyclopropoxy)-N-ethylsulfonyl-benzamide] | < 30% | 30 to 50% | 2.54 µM | 16.5 µM |
| CCCOc1ccc(C(=O)NS(=O)(=O)CC)c(N2CCN(Cc3nc4ccccc4s3)CC2)c1 [Compound A-42, 2-[4-(1,3-benzothiazol-2-ylmethyl)piperazin-1-yl]-N-ethylsulfonyl-4-propoxy-benzamide] | < 30% | 30 to 50% | 17.7 µM | 26.3 µM |
| CCS(=O)(=O)NC(=O)c1ccc(OCC(C)C)cc1N1CCN(Cc2nc3ccccc3s2)CC1 [Compound A-43, 2-[4-(1,3-benzothiazol-2-ylmethyl)piperazin-1-yl]-N-ethylsulfonyl-4-isobutoxy-benzamide] | < 30% | 30 to 50% | 4.38 µM | – |
| CCc1ccc(-c2nn[nH]n2)c(N2CCN(Cc3nc4ccccc4s3)CC2)c1 [Compound A-45, 2-[[4-[5-ethyl-2-(2H-tetrazol-5-yl)-phenyl]piperazin-1-yl]methyl]-1,3-benzothiazole] | < 30% | < 30% | 2.54 µM | 30 µM |

Next, values leading:

| inhibition at 1 µM (human AT1R) | inhibition at 10 µM (human AT1R) | IC50 (human AT2R fused to Cb23) | IC50 (human AT1R) | SMILES |
| --- | --- | --- | --- | --- |
| < 30% | < 30% | 14.3 µM | – | Cn1c(CN2CCN(c3cc(C(F)(F)F)ccc3-c3nn[nH]n3)CC2)nc2ccccc21 [Compound A-17, 1-methyl-2-[[4-[2-(2H-tetrazol-5-yl)-5-(trifluoromethyl)-phenyl]piperazin-1-yl]methyl]benzimid-azole] |
| < 30% | < 30% | 3.85 µM | – | C/C=C/c1ccc(-c2nn[nH]n2)c(N2CCN(Cc3nc4ccccc4n3C)CC2)c1 [Compound A-18, 1-methyl-2-[[4-[5-[(E)-prop-1-enyl]-2-(2H-tetrazol-5-yl)-phenyl]piperazin-1-yl]methyl]benz-imidazole] |
| < 30% | < 30% | 19.7 µM | – | COc1ccc(-c2nn[nH]n2)c(N2CCN(Cc3nc4ccccc4n3C)CC2)c1 [Compound A-22, 2-[[4-[5-methoxy-2-(2H-tetrazol-5-yl)phenyl]piperazin-1-yl]methyl]-1-methyl-benzimidazole] |
| < 30% | < 30% | 2.37 µM | – | CCOc1ccc(-c2nn[nH]n2)c(N2CCN(Cc3nc4ccccc4n3C)CC2)c1 [Compound A-23, 2-[[4-[5-ethoxy-2-(2H-tetrazol-5-yl)-phenyl]piperazin-1-yl]methyl]-1-meth-yl-benzimidazole] |
| < 30% | < 30% | 3.07 µM | – | CCc1ccc(C(=O)NS(=O)(=O)CC)c(N2CCN(Cc3nc4ccccc4s3)CC2)c1 [Compound A-33, 2-[4-(1,3-benzothiazol-2-ylmethyl)piperazin-1-yl]-4-ethyl-N-ethylsulfonyl-benzamide] |
| < 30% | < 30% | 0.484 µM | – | CCS(=O)(=O)NC(=O)c1ccc(C(C)C)cc1N1CCN(Cc2nc3ccccc3s2)CC1 [Compound A-34, 2-[4-(1,3-benzo-thiazol-2-ylmethyl)-piperazin-1-yl]-N-ethylsulfonyl-4-iso-propyl-benzamide] |
| < 30% | < 30% | 0.602 µM | 31.4 µM | CCS(=O)(=O)NC(=O)c1ccc(C2CC2)cc1N1CCN(Cc2nc3ccccc3s2)CC1 [Compound A-35, 2-[4-(1,3-benzothiazol-2-ylmethyl)piperazin-1-yl]-4-cyclopropyl-N-ethylsulfonyl-benzamide] |
| < 30% | < 30% | 1.42 µM | – | CCS(=O)(=O)NC(=O)c1ccc(CC(C)C)cc1N1CCN(Cc2nc3ccccc3s2)CC1 [Compound A-36, 2-[4-(1,3-benzo-thiazol-2-ylmethyl)-piperazin-1-yl]-N-ethylsulfonyl-4-isobutyl-benzamide] |
| < 30% | < 30% | 5.87 µM | 36.6 µM | CCS(=O)(=O)NC(=O)c1ccc(OC(C)C)cc1N1CCN(Cc2nc3ccccc3s2)CC1 [Compound A-40, 2-[4-(1,3-benzothiazol-2-ylmethyl)piperazin-1-yl]-N-ethylsulfonyl-4-isopropoxy-benzamide] |
| < 30% | < 30% | 7.18 µM | 34.9 µM | CCNc1ccc(C(=O)NS(=O)(=O)CC)c(N2CCN(Cc3nc4ccccc4s3)CC2)c1 [Compound A-44, 2-[4-(1,3-benzo-thiazol-2-ylmethyl)-piperazin-1-yl]-4-(ethylamino)-N-ethylsulfonyl-benz-amide] |
| < 30% | < 30% | 1.79 µM | – | CC(C)c1ccc(-c2nn[nH]n2)c(N2CCN(Cc3nc4ccccc4s3)CC2)c1 [Compound A-46] |
